According to patent publication US9801901B2, “Alginate oligomers for use in overcoming multidrug resistance in bacteria” (priority 2009, dated 2017):
Converted amounts (≈) assume the structure as drawn. Read-outs that look alike come from different tables or passages of the source.

How the values were obtained:
[1] = system: strains of Klebsiella pneumoniae displaying MDR phenotypes; test: MIC-assay, Mueller-Hinton broth with G-block alginate, 384-well, OD600 (Table 10); format: cell-based; details: Klebsiella pneumoniae (K3, India, V8) MDR
From the text: Minimum inhibitory concentration (MICs) of different antibiotics for strains of Klebsiella pneumoniae displaying MDR phenotypes in the presence of varying concentrations of OligoCF-5/20 (0-10%). (MIC values are expressed in μg ml^−1).

[2] = system: Pseudomonas aeruginosa CFA 24-1, clinical mucoid strain (R80); test: MIC assay, CAMHB with alginate oligomer, no visible growth; format: cell-based; details: Pseudomonas aeruginosa, Table 4, R80 non MDR (muc.), read-out: MIC
[3] = system: Pseudomonas aeruginosa ATCC 39324, mucoid type strain (R79); test: as above; format: cell-based; details: Pseudomonas aeruginosa, ATCC39324, Table 4, R79 non MDR (muc.), read-out: MIC
[4] = system: Burkholderia cepacia (1322, V23); test: MIC-assay, Mueller-Hinton broth with G-block alginate, 384-well, OD600; details: Table 8, G-block (OligoCF-5/20) 10%
[5] = system: Pseudomonas aeruginosa (MDR 301, PSA, V2); test: as above; details: Table 8, V2
[6] = system: V10 (Egypt) Acinetobacter lwoffii; test: MIC assay, CAMHB with alginate oligomer, no visible growth; format: cell-based; details: Table 5, V10 MDR Acin. lwoff
[7] = system: Acinetobacter baumannii (MDR ACB, Libya, V4); test: MIC-assay, Mueller-Hinton broth with G-block alginate, 384-well, OD600
[8] = system: Pseudomonas aeruginosa (R22, PSA, V1); test: as above; details: Table 8, G-block (OligoCF-5/20) 0%
[9] = system: Pseudomonas aeruginosa MDR R22 from China (V1); test: MIC assay, CAMHB with alginate oligomer, no visible growth; format: cell-based; details: Pseudomonas aeruginosa, Table 4, V1 MDR (China), read-out: MIC
From the text: The study described in Example 1 was repeated with the following strains of bacteria and antibiotics as detailed in Tables 4, 5 and 6.

[10] = system: V12 5725 (Wales) Klebsiella pneumoniae; test: as above; format: cell-based; details: Table 5, V12 MDR Kleb pneu
[11] = system: Acinetobacter lwoffii (Egypt, V10); test: MIC-assay, Mueller-Hinton broth with G-block alginate, 384-well, OD600
[12] = system: Acinetobacter lwoffii (6056, V22); test: as above
[13] = system: Burkholderia cepacia (LMG18941, ATCC-BAA-246); test: as above
[14] = system: Acinetobacter baumannii (Egypt, V9); test: as above
[15] = system: Staphylococcus aureus (MRSA) U50; test: MIC-assay, Mueller-Hinton broth with G-block alginate, 384-well, OD600 (Table 12); format: cell-based; details: MRSA 1040s, U50 MDR
From the text: (§1) Minimum inhibitory concentration (MICs) of different antibiotics for strains of Streptococcus oralis and Staphylococcus aureus (MRSA) displaying MDR phenotypes in the presence of varying concentrations of OligoCF-5/20 (0-10%). (MIC values are expressed in μg ml^−1).

Streptococcus oralis = test: as above; format: cell-based; details: Streptococcus oralis (5610, V17) MDR
From the text: as §1

[16] = system: PA01 Pseudomonas aeruginosa ATCC 15692; test: MIC assay, two-fold antibiotic dilutions in CAMHB with alginate oligomer, no visible growth; format: cell-based; details: Pseudomonas aeruginosa, ATCC15692, Table 4, PA01 non MDR, read-out: MIC
[17] = Table 9, G-block (OligoCF-5/20) 0%
[18] = Table 9, G-block (OligoCF-5/20) 2%
[19] = Table 9, G-block (OligoCF-5/20) 6%
[20] = Table 9, G-block (OligoCF-5/20) 10%
[21] = G-block (OligoCF-5/20) 0%, read-out: MIC
[22] = G-block (OligoCF-5/20) 2%, read-out: MIC

## CC[C@H]1OC(=O)[C@H](C)[C@@H](O[C@H]2C[C@@](C)(OC)[C@@H](O)[C@H](C)O2)[C@H](C)[C@@H](O[C@@H]2O[C@H](C)C[C@H](N(C)C)[C@H]2O)[C@](C)(O)C[C@@H](C)C(=O)[C@H](C)[C@@H](O)[C@]1(C)O [Erythromycin]
[1]; G-block (OligoCF-5/20) 0%
  MIC: 128 µg/mL (≈ 174 µM)
[1]; G-block (OligoCF-5/20) 2%
  MIC: 128 µg/mL (≈ 174 µM)
[1]; G-block (OligoCF-5/20) 6%
  MIC: 128 µg/mL (≈ 174 µM)
[1]; G-block (OligoCF-5/20) 10%
  MIC: 128 µg/mL (≈ 174 µM)
[2]; OligoCF-5/20 0G
  MIC: 512 µg/mL (≈ 698 µM)
[2]; OligoCF-5/20 +6% G
  MIC: 128 µg/mL (≈ 174 µM)
[2]; OligoCF-5/20 +10% G
  MIC: 32 µg/mL (≈ 43.6 µM)
[3]; OligoCF-5/20 0G
  MIC: 128 µg/mL (≈ 174 µM)
[3]; OligoCF-5/20 +2% G
  MIC: 64 µg/mL (≈ 87.2 µM)
[3]; OligoCF-5/20 +6% G
  MIC: 32 µg/mL (≈ 43.6 µM)
[3]; OligoCF-5/20 +10% G
  MIC: 2 µg/mL (≈ 2.73 µM)
[4]
  MIC: 64 µg/mL (≈ 87.2 µM)
[5]; Pseudomonas aeruginosa, G-block (OligoCF-5/20) 0%
  MIC: > 512 µg/mL
[5]; Pseudomonas aeruginosa, G-block (OligoCF-5/20) 2%
  MIC: > 512 µg/mL
[5]; G-block (OligoCF-5/20) 10%
  MIC: 512 µg/mL (≈ 698 µM)
[6]; Acinetobacter lwoffii, OligoCF-5/20 0G, read-out: MIC
  MIC: < 0.5 µg/mL
[6]; OligoCF-5/20 +2% G
  MIC: <0.5 µg/mL
[6]; OligoCF-5/20 +6% G
  MIC: <0.5 µg/mL
[6]; OligoCF-5/20 +10% G
  MIC: <0.5 µg/mL
[7]; [17]
  MIC: 32 µg/mL (≈ 43.6 µM)
[7]; [18]
  MIC: 8 µg/mL (≈ 10.9 µM)
[7]; [19]
  MIC: 4 µg/mL (≈ 5.45 µM)
[7]; [20]
  MIC: 2 µg/mL (≈ 2.73 µM)
[8]
  MIC: > 512 µg/mL
[9]; OligoCF-5/20 0G
  MIC: 128 µg/mL (≈ 174 µM)
[9]; OligoCF-5/20 +6% G
  MIC: 64 µg/mL (≈ 87.2 µM)
[9]; OligoCF-5/20 +10% G
  MIC: 32 µg/mL (≈ 43.6 µM)
[10]; Klebsiella pneumoniae, OligoCF-5/20 0G, read-out: MIC
  MIC: 512 µg/mL (≈ 698 µM)
[10]; OligoCF-5/20 +6% G
  MIC: 512 µg/mL (≈ 698 µM)
[10]; OligoCF-5/20 +10% G
  MIC: 512 µg/mL (≈ 698 µM)
[11]; [17]
  MIC: 1 µg/mL (≈ 1.36 µM)
[11]; [18]
  MIC: < 1 µg/mL
[11]; [19]
  MIC: < 1 µg/mL
[11]; [20]
  MIC: < 1 µg/mL
[12]; [17]
  MIC: < 2 µg/mL
[12]; [18]
  MIC: < 2 µg/mL
[12]; [19]
  MIC: < 2 µg/mL
[12]; [20]
  MIC: < 2 µg/mL
[13]; ATCCBAA246|LMG18941, Table 8, G-block (OligoCF-5/20) 6%
  MIC: 64 µg/mL (≈ 87.2 µM)
[13]; ATCCBAA246|LMG18941, Table 8, G-block (OligoCF-5/20) 10%
  MIC: 64 µg/mL (≈ 87.2 µM)
[14]; [17]
  MIC: 8 µg/mL (≈ 10.9 µM)
[14]; [18]
  MIC: 2 µg/mL (≈ 2.73 µM)
[14]; [19]
  MIC: 1 µg/mL (≈ 1.36 µM)
[14]; [20]
  MIC: < 1 µg/mL
[15]; [21]
  MIC: > 1020 µg/mL
[15]; [22]
  MIC: > 1020 µg/mL
[15]; G-block (OligoCF-5/20) 6%
  MIC: 1020 µg/mL (≈ 1400 µM)
[15]; G-block (OligoCF-5/20) 10%
  MIC: 512 µg/mL (≈ 698 µM)
Streptococcus oralis; [21]
  MIC: 2 µg/mL (≈ 2.73 µM)
Streptococcus oralis; [22]
  MIC: 16 µg/mL (≈ 21.8 µM)
Streptococcus oralis; G-block (OligoCF-5/20) 6%
  MIC: 0.0312 µg/mL (≈ 0.0426 µM)
Streptococcus oralis; G-block (OligoCF-5/20) 10%
  MIC: 0.0625 µg/mL (≈ 0.0852 µM)
[16]; OligoCF-5/20 0G
  MIC: 128 µg/mL (≈ 174 µM)
[16]; OligoCF-5/20 +2% G
  MIC: 64 µg/mL (≈ 87.2 µM)
[16]; OligoCF-5/20 +6% G
  MIC: 64 µg/mL (≈ 87.2 µM)
[16]; OligoCF-5/20 +10% G
  MIC: 16 µg/mL (≈ 21.8 µM)
